Laboratory results taken from ChEMBL document CHEMBL5303766, “Data for DCP probe FHT-2344” (2022).

How the values were obtained:
[1] = molecular target: Serine/threonine-protein kinase B-raf (Homo sapiens) (UniProt P15056); test: BRAF SGC Tm panel (DSF); details: for ΔTm: Compound concentration 10.0 uM
[2] = molecular target: Calcium/calmodulin-dependent protein kinase type II subunit beta (Homo sapiens) (UniProt Q13554); test: CAMK2B SGC Tm panel (DSF); details: for ΔTm: Compound concentration 10.0 uM
Chain of Calcium/calmodulin-dependent protein kinase type II subunit beta (Homo sapiens) (Q13554 whole entry): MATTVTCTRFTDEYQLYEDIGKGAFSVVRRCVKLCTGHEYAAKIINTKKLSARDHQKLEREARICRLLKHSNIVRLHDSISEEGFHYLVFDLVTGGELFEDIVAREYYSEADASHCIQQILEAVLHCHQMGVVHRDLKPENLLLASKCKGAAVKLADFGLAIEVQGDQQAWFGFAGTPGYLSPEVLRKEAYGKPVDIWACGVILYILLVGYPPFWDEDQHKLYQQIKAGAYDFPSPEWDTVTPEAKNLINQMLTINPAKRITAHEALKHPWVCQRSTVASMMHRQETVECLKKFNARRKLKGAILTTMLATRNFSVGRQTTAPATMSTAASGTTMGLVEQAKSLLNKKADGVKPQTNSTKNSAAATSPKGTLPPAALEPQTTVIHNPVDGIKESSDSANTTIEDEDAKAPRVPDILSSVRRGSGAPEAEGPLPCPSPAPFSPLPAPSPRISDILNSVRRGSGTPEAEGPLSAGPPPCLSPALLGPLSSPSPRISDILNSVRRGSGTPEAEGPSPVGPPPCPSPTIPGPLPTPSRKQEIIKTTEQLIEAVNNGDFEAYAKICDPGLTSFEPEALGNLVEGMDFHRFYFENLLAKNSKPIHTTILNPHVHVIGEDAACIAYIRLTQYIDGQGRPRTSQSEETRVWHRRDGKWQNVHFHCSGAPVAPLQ

[3] = molecular target: Cell division control protein 42 homolog (Homo sapiens) (UniProt P60953); test: CDC42 SGC Tm panel (DSF); details: for ΔTm: Compound concentration 10.0 uM
Chain of Cell division control protein 42 homolog (Homo sapiens) (P60953 whole entry, looked up): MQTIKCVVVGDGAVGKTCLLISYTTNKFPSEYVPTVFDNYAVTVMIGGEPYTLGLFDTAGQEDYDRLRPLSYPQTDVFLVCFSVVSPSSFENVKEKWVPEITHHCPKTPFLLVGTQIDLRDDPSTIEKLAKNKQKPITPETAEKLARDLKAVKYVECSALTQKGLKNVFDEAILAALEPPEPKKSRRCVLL

[4] = molecular target: Dual specificity protein kinase CLK3 (Homo sapiens) (UniProt P49761); test: CLK3 SGC Tm panel (DSF); details: for ΔTm: Compound concentration 10.0 uM
[5] = molecular target: Death-associated protein kinase 1 (Homo sapiens) (UniProt P53355); test: DAPK1 SGC Tm panel (DSF); details: for ΔTm: Compound concentration 10.0 uM
[6] = molecular target: T1, Ephrin type-B receptor 3 (Homo sapiens) (UniProt P54753); test: EPHB3 SGC Tm panel (DSF); details: for ΔTm: Compound concentration 10.0 uM
T1 sequence (whole entry): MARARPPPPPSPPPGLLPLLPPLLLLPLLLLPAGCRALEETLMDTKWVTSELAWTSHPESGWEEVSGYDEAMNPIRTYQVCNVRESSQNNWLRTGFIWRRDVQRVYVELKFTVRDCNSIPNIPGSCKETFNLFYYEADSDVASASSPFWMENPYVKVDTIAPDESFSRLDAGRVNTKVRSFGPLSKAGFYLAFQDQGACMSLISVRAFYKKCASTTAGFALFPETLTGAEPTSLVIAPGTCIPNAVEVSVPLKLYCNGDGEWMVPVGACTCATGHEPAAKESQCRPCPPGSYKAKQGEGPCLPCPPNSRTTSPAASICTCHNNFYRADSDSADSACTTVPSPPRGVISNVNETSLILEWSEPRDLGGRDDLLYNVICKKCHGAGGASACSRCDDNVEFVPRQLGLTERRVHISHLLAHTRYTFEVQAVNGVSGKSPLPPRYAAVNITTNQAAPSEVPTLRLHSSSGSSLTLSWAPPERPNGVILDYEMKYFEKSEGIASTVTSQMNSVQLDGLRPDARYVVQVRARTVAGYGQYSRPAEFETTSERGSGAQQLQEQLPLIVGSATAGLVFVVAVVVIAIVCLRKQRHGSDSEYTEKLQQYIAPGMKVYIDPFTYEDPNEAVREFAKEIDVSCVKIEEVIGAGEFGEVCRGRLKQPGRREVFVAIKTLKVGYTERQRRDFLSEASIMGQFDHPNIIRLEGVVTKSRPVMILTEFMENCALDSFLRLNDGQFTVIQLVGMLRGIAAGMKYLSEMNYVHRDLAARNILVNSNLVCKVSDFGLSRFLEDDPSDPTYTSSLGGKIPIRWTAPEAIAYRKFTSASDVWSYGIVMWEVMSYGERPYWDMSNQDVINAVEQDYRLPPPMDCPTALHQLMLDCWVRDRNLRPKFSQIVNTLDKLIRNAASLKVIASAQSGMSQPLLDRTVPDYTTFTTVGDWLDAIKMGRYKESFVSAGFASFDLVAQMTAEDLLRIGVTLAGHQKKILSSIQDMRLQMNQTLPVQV

[7] = molecular target: Mitogen-activated protein kinase 9 (Homo sapiens) (UniProt P45984); test: MAPK9 SGC Tm panel (DSF); details: for ΔTm: Compound concentration 10.0 uM
Chain of Mitogen-activated protein kinase 9 (Homo sapiens) (P45984 whole entry, looked up): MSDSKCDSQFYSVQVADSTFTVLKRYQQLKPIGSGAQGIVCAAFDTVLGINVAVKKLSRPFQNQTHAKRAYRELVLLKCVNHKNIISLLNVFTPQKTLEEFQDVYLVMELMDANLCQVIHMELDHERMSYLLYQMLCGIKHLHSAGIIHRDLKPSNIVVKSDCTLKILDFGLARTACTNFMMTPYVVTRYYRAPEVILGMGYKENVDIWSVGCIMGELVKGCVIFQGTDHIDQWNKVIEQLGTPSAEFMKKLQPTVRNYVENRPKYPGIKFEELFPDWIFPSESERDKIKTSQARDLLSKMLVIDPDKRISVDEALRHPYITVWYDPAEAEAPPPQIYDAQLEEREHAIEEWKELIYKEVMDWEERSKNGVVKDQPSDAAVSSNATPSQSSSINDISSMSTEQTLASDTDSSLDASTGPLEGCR

[8] = molecular target: MAP/microtubule affinity-regulating kinase 3 (Homo sapiens) (UniProt P27448); test: MARK3 SGC Tm panel (DSF); details: for ΔTm: Compound concentration 10.0 uM
Chain of MAP/microtubule affinity-regulating kinase 3 (Homo sapiens) (P27448 whole entry, looked up): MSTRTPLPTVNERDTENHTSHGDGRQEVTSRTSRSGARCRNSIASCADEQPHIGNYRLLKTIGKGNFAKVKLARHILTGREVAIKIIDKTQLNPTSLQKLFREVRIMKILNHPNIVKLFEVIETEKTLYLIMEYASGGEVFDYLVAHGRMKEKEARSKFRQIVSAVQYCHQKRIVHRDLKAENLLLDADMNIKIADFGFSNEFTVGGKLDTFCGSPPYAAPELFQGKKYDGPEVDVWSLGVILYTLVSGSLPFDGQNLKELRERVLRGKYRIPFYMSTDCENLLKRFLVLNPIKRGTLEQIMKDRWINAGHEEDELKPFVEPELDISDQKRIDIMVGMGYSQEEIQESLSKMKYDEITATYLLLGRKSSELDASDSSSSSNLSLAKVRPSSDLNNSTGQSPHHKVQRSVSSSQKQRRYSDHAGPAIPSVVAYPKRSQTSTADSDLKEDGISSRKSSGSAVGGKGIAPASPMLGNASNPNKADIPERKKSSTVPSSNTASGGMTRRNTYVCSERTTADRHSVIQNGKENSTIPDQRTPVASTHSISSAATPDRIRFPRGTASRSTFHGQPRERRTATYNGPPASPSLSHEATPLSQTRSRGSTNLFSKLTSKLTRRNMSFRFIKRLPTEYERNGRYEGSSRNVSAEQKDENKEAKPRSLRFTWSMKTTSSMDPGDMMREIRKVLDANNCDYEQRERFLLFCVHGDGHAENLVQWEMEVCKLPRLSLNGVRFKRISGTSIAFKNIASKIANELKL

[9] = molecular target: Serine/threonine-protein kinase OSR1 (Homo sapiens) (UniProt O95747); test: OXSR1 SGC Tm panel (DSF); details: for ΔTm: Compound concentration 10.0 uM
[10] = molecular target: Serine/threonine-protein kinase 10 (Homo sapiens) (UniProt O94804); test: STK10 SGC Tm panel (DSF); details: for ΔTm: Compound concentration 10.0 uM
Chain of Serine/threonine-protein kinase 10 (Homo sapiens) (O94804 whole entry, looked up): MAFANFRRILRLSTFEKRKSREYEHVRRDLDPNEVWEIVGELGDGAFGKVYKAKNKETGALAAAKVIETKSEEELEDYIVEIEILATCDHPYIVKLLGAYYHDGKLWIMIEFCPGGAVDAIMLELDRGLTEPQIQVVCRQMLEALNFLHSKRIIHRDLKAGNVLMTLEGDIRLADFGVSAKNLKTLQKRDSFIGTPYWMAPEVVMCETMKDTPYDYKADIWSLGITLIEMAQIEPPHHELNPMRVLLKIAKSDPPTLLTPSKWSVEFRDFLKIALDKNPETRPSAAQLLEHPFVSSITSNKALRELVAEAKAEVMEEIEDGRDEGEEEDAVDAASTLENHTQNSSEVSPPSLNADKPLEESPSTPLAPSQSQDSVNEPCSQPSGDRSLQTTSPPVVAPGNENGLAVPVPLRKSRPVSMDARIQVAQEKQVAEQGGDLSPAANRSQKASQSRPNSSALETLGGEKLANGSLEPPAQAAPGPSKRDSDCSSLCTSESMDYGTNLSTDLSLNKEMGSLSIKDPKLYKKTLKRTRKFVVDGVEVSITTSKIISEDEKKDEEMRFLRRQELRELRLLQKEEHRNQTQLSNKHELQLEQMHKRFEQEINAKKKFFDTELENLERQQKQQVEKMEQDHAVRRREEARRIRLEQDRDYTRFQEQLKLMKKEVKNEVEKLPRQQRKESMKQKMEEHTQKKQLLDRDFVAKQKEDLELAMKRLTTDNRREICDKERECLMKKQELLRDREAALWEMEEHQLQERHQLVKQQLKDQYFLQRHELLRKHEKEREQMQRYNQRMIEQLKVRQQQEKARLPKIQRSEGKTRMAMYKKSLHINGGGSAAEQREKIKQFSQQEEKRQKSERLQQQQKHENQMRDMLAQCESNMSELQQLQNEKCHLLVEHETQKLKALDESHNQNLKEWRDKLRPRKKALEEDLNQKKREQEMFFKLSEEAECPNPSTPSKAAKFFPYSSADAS

[11] = molecular target: RAC-gamma serine/threonine-protein kinase (Homo sapiens) (UniProt Q9Y243); test: AKT3 SGC Tm panel (DSF); details: for ΔTm: Compound concentration 10.0 uM
Chain of RAC-gamma serine/threonine-protein kinase (Homo sapiens) (Q9Y243 whole entry): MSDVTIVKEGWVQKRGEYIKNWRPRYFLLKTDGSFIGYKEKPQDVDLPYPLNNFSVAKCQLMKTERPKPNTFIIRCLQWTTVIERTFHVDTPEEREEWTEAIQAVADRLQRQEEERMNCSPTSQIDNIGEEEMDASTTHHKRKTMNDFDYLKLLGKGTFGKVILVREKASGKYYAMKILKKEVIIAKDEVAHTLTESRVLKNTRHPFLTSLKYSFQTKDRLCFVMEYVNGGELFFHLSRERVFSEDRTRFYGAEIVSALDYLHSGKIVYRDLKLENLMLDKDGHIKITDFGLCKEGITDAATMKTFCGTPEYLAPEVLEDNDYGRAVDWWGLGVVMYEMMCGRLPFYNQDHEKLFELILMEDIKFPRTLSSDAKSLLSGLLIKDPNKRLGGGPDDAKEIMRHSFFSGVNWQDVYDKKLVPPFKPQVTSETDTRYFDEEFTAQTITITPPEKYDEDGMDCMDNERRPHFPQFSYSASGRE

[12] = molecular target: Calcium/calmodulin-dependent protein kinase type 1G (Homo sapiens) (UniProt Q96NX5); test: CAMK1G SGC Tm panel (DSF); details: for ΔTm: Compound concentration 10.0 uM
Chain of Calcium/calmodulin-dependent protein kinase type 1G (Homo sapiens) (Q96NX5 whole entry): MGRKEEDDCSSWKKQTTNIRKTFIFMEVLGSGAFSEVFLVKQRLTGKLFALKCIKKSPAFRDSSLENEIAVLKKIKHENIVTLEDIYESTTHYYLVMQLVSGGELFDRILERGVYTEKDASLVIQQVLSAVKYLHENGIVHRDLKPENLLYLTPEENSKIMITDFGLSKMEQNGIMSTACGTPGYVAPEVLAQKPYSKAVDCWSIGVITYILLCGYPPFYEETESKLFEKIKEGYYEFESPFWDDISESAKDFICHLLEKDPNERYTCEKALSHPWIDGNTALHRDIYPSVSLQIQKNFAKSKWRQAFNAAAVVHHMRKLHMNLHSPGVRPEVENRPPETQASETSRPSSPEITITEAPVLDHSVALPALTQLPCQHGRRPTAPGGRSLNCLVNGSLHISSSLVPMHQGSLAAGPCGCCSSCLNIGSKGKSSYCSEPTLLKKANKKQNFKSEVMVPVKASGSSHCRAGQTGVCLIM

[13] = molecular target: T2, Serine/threonine-protein kinase PLK4 (Homo sapiens) (UniProt O00444); test: PLK4 SGC Tm panel (DSF); details: for ΔTm: Compound concentration 10.0 uM
T2 sequence (whole entry): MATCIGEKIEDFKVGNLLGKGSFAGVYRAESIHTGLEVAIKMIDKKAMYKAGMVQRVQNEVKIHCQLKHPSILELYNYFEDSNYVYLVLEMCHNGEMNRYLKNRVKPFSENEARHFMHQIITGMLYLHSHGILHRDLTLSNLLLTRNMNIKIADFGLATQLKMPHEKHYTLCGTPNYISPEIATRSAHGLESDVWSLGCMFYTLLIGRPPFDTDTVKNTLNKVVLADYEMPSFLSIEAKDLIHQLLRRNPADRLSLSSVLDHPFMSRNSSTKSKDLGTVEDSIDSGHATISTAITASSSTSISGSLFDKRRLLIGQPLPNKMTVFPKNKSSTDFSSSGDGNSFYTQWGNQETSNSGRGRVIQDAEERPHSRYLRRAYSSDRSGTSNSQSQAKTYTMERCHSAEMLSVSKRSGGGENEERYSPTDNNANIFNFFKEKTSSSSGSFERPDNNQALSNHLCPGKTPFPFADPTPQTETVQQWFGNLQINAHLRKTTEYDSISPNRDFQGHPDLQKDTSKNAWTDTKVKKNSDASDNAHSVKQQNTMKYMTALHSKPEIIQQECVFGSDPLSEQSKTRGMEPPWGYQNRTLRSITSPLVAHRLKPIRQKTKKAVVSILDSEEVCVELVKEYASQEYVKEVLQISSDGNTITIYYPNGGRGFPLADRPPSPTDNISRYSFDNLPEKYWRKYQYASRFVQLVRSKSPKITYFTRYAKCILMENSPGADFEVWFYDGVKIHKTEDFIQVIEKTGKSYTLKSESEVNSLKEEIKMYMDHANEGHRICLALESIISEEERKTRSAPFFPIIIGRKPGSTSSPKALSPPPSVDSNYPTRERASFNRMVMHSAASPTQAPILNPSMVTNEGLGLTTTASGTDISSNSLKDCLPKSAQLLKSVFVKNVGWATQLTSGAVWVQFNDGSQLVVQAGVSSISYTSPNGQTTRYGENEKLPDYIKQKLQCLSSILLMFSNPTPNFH

[14] = molecular target: 5-hydroxytryptamine receptor 2B (Homo sapiens, UniProt P41595); details: Compound concentration 10.0 uM
[15] = molecular target: D(1A) dopamine receptor (Homo sapiens) (UniProt P21728); details: Compound concentration 10.0 uM
[16] = molecular target: Beta-1 adrenergic receptor (Homo sapiens) (UniProt P08588); details: Compound concentration 10.0 uM

Chain of Serine/threonine-protein kinase B-raf (Homo sapiens) (P15056 whole entry): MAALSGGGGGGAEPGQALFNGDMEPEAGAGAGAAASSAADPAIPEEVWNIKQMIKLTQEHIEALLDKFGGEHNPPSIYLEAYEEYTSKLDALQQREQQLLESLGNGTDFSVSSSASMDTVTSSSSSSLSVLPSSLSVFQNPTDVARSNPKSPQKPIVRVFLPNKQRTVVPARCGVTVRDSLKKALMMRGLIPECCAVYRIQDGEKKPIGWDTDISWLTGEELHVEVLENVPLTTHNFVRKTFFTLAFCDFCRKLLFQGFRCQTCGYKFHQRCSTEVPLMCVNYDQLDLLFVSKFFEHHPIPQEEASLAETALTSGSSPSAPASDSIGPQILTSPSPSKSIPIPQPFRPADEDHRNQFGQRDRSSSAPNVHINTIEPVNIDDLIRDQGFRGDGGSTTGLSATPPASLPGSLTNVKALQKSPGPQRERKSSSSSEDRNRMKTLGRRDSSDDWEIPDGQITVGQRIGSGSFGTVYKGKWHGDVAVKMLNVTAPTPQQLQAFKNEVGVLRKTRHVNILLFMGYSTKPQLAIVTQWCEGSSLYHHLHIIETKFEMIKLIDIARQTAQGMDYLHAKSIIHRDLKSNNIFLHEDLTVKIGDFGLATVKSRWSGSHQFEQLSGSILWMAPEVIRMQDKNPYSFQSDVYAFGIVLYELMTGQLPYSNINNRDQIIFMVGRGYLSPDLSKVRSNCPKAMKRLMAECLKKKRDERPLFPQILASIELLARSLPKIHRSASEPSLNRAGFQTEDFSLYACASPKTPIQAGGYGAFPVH

| Compound | delta Tm Staurosporine positive control [1] | ΔTm [1] | delta Tm Staurosporine positive control [2] | ΔTm [2] | delta Tm Staurosporine positive control [3] | ΔTm [3] | delta Tm Staurosporine positive control [4] | ΔTm [4] | delta Tm Staurosporine positive control [5] | ΔTm [5] | delta Tm Staurosporine positive control [6] | ΔTm [6] | delta Tm Staurosporine positive control [7] | ΔTm [7] | delta Tm Staurosporine positive control [8] | ΔTm [8] | delta Tm Staurosporine positive control [9] | ΔTm [9] | delta Tm Staurosporine positive control [10] | ΔTm [10] | also measured |
| --- | --- | --- | --- | --- | --- | --- | --- | --- | --- | --- | --- | --- | --- | --- | --- | --- | --- | --- | --- | --- | --- |
| C[C@H](NC(=O)c1cn(C2(C#N)CC2)cn1)C(=O)Nc1nc(-c2cccc(-c3ccn(C)n3)c2)cs1 | 0.63 | -0.0339 | 14.5 | 0.509 | 2.78 | -0.206 | 4.89 | -0.347 | 9.19 | 0.0306 | 7.3 | -0.415 | 3.96 | 0.39 | 19.1 | 1.73 | 5.06 | 1.31 | 22.7 | 0.554 | delta Tm Staurosporine positive control [11]: 7.03; ΔTm [11]: 0.193; delta Tm Staurosporine positive control [12]: 13.3; ΔTm [12]: 0.371; delta Tm Staurosporine positive control [13]: 19.9; ΔTm [13]: 0.729; inhibition [14]: 86.8%; inhibition [15]: 38.9%; inhibition [16]: 3.85% |
| COC[C@H](NC(=O)c1ccn(S(C)(=O)=O)c1)C(=O)Nc1nc(-c2cccc(-c3ccn(C)n3)c2)cs1 | 0.63 | -0.0136 | 14.5 | 0.588 | 2.78 | 0.57 | 4.89 | -0.362 | 9.19 | -0.136 | 7.3 | -0.288 | 3.96 | 0.244 | 19.1 | 1.12 | 5.06 | -0.0355 | 22.7 | 0.244 | delta Tm Staurosporine positive control [11]: 7.03; ΔTm [11]: 0.0196; delta Tm Staurosporine positive control [12]: 13.3; ΔTm [12]: -0.0351; delta Tm Staurosporine positive control [13]: 19.9; ΔTm [13]: 0.546; inhibition [14]: 48.2%; inhibition [15]: 30.9%; inhibition [16]: 1.4% |
